Data reported in US20240228542A1, “LYTIC DOMAIN FUSION CONSTRUCTS, CHECKPOINT INHIBITORS, AND METHODS OF MAKING AND USING SAME” (A28 Therapeutics Inc., priority 2020, published 2024).
Where two headings read alike, the source gives them in different places.

Columns and labels:
[1] = test system: MDA-MB-435S.luc cells; type: cell-based, human
Excerpt: This example describes screening for cell toxicity (IC50) and hemolytic activity using a human breast cancer cell line.
The human melanoma cell line MDA-MB-435S.luc, which over expresses chorionic gonadotrophin (CG) and luteinizing hormone-releasing hormone (LHRH) receptors, was used to screen at passage numbers 248-252. The MDA-MB-435S.luc cell line was constructed from the MDA-MB-435S cell line obtained from the American Type Cell Culture Collection by stable transfection with the plasmid PRC/CMV-luc containing the Photinus pyralis luciferase gene and an […] resistance gene by lipofection. The stably transfected cell line was selected using G418 and the clones with the highest expression for the luciferase gene were tested for their LH and LHRH receptor expression.
(§1) MDA-MB-435S.luc cells were grown in Leibovitz's L 15 medium, 10% fetal bovine serum, 0.01 mg/ml bovine insulin, 100 IU/ml penicillin, 100 microg/ml streptomycin. The cells were cultured in tight closed flasks. The incubations were conducted using 96 well plates at 10,000 cells per well. Cells were typically seeded into 96 well plates and media was replaced after 48 hours of incubation. Each assay was conducted at increasing concentrations of 0, 0.001, 0.01, 0.05, 0.1, 0.5, 1, 2, 5, 10 and 100 micromolar doses of lytic peptide-binding domain conjugate. Each lytic peptide-binding domain conjugate provided in lyophilized form and was freshly dissolved in saline and added to cells. The duration of incubation was typically 24 h, and cell viability assays were conducted using formazan conversion assays (MTT assay). Controls contained saline or 0.1% triton as reference for 0 and 100% cell death, respectively.
Data were processed and analyzed using Graph Pad Prizm 4™ software (Graph Pad Prizm, Inc). Statistical analysis for significance was determined by a two-tailed Student's T-test. Each study was conducted to achieve an N of at least 8.

[2] = test system: ID8 ovarian cancer cells; assay: Cytokine and chemokine secretion by ID8 cells (array, RT-PCR, ELISA); type: cell-based, murine
Protocol: Cytokine Array—Supernatant from cultured cells was stored at −20° C. for batch analyses to measure cytokines. The mouse cytokine array (R&D Systems, Inc.) was purchased and used to detect the secretion of 111 cytokines in the experiments groups. These Proteome Profiler Arrays were performed according to the manufacturer's protocol.
The effect of EP-100 on cytokines and chemokines was analyzed using a proteome profiler murine cytokine array in the CD8^+ T cell activation in ID8 ovarian cancer cells. […] LIF and CXCL10 secretion were decreased after treatment with EP-100 for 4 hours. LDL receptor secretion was increased by EP-100 at 2 hours and 12 hours, while IL1α, CCL20, VEGF, and IL33 were secreted after EP-100 treatment (FIG. 19 B). Among the cytokines, IL33 inhibited tumor growth and modified the tumor microenvironment. Using RT-PCR and ELISA the induction of IL33 through EP-100 was analyzed. IL33 mRNA expression was increased in 30 minutes after EP-100 treatment, and secretion was increased after 2 hours of EP-100 treatment, and this effect continued through 12 hours (FIGS. 19C and 19D). […] To determine the IL33 role in the tumor microenvironment, we tested the IL33 effect on T cell differentiation in vitro. We isolated naïve CD4^+ T cells from mouse […], and further cultured for 5 days in CD3 and CD28, and mouse IL-2 containing media to differentiated CD8^+ T cell. LHRH-R mRNA expression and EP-100-induced cytoic effect was lower in both naïve T cells and CD8^+ T cells than in ID8 cells (FIGS. 20A and 20B).

[3] = test system: MDA-MB-231; assay: Cytotoxicity in MDA-MB-231 breast cancer cells; type: cell-based; details: MDA-MB-231 breast cancer cell line; read-out: IC50 in Human Cancer Cell Lines
Protocol: as §1
(§2) To ascertain the IC50 of various fusion constructs on different human cancer cell lines compared to cisplatinum, IC50 of fusion constructs were evaluated as in Table 3.

[4] = test system: IG10 murine ovarian carcinoma; assay: Orthotopic IG10 murine ovarian carcinoma syngeneic model; type: in vivo, C57BL/6 mice
Protocol: C57BL/6 female mice were injected orthotopically with luciferase labeled IG10 murine ovarian cancer cell line (1x10^6 cells). Mice were monitored for tumor take using a luminescent imaging system. […] Each treatment and control group consisted of 10 mice. At necropsy on day 28, ascites fluids were removed and measured, and tumors were removed and weighed.
Significance between treatment groups was assessed using Wilcoxon signed Rank test analysis and ANOVA.

[5] = test system: immune cells in ascites; assay: Immune cell profiling (FACS) of ID8 ascites; type: in vivo, C57BL/6 mice
Protocol: Immune Profiling Assay—Immunophenotypic analyses of splenocytes and single cell suspensions from tumors were assessed by flow cytometry. Abs to stain for MDSCs were CD11b-APC (clone M1/70; BD Biosciences), Ly6G-FITC (clone 1A8; BD Biosciences) and Ly6C-PE (clone AL-21; BD Biosciences). For T-cell activation markers, cells were stained with Ab specific for CD4-PE-Cy7 (clone RM4-5; BD Biosciences), CD8-PE-Cy7 (clone 53-6.7; BD Biosciences), CD62L-PE (clone MEL-14; BD Biosciences) and CD44-FITC (clone IM7; Biolegend). Cells were incubated on ice for 30 min, washed and fixed in phosphate buffered saline (PBS) containing 1% formalin for flow cytometric analysis on an LSRII flow cytometer (BD Biosciences).
Immune cell profiling was conducted on ascites (N=3) and tumor tissue (N=3) by processing the samples by the following method and analyzed through Fluorescent Activated Cell Sorting (FACS), see Table 8. Cells were incubated for 30 minutes on ice, washed and fixed in phosphate buffered saline containing 1% formalin for flow cytometric analysis on an LSRII flow cytometer.

[6] = test system: SKOV-3; assay: Cytotoxicity in SKOV-3 ovarian cancer cells; type: cell-based; details: SKOV-3 ovarian cancer cell line; read-out: IC50 in Human Cancer Cell Lines
Protocol: as §1, §2

[7] = MDA-MB-435S.luc cells, 24 h, MTT, read-out: IC50

KFAKFAKKFAKFAKKFAK [Phor18, reference compound]
IC50 [1, 7]: 2.06 ± 0.5 µM

KFAKFAKKFAKFAKKFAKQHWSYGLRPG [Phor18-LHRH]
time to increased IL33 secretion ([2]; ID8 cells, ELISA, continued through 12 hours): 2 h
time to increased IL33 mRNA expression ([2]; ID8 cells, RT-PCR): 30 min
secretion of cytokines and chemokines (array) ([2]; ID8 cells, LIF, CXCL10, IL1α, CCL20, VEGF, IL33, LDL receptor): increased secretion of various molecules
IL33 secretion ([2]; in vitro, FIG. 19D): IL33 secretion was increased by EP-100
IC50 [3]: 5.5 ± 1.2 µM
relative reduction of ascites volumes [4]: 60.2%
tumor weights at necropsy ([4]; Mean±SEM, N=10, controls 1.04±0.09 g): 0.45 ± 0.08 g
ascites volumes ([4]; Mean±SEM, N=10, vehicle 9.06±1.3 ml): 3.6 ± 0.7 mL
increase of CD8+ T/Treg ratio [5]: 7 fold
Monocytic myeloid suppressor cells (mMDSC) ([5]; % of CD45+ cells, controls 0.62±0.08%): 0.21±0.01%
CD8+ T cells ([5]; % of CD45+ cells, controls 1.9±0.3%): 8.9±2.4%
B cells ([5]; % of CD45+ cells, controls 9.8±1.8%): 1.5±0.14%
Natural killer (NK) cells ([5]; % of CD45+ cells, controls 10.3±0.8%): 10.2±0.08%
Dendritic cells (DC) ([5]; % of CD45+ cells, controls 18.5±1.1%): 15.1±0.2%
Macrophages ([5]; % of CD45+ cells, controls 23.8±5.1%): 25.6±0.7%
CD45+ cell fraction of life cells ([5]; Mean±SEM, controls 10.5±1.8%): 15.6±2.1%
ratio of CD8+ T cells to regulatory T cells ([5]; controls 2.6±0.6): 17.32±4.1
Increased in vitro activity fold ([1]; IC50 of 33 (Phor21-βCG-ala, 2.31 μM)/IC50 peptide, MDA-MB-435S.luc): 2.65 fold
IC50 [1, 7]: 0.87 ± 0.11 µM
IC50 ([1]; MDA-MB-435S.luc cells, places that print μm (Table 2: lytic peptide row + hinge column + ligand section), read-out: IC50): 0.87 µM
IC50 ([1]; MDA-MB-435S.luc melanoma cell line, read-out: IC50 in Human Cancer Cell Lines): 0.86 ± 0.16 µM
IC50 [6]: 11.8 ± 0.3 µM
